Paper PMC9458058, “Synthesis of N-Substituted Iminosugar C-Glycosides and Evaluation as Promising α-Glucosidase Inhibitors” (Molecules, 2022)
pIC50: −log10 of the molar value. Like-named read-outs stand apart in the source and are kept apart here.

Target: α-glucosidase from yeast (Saccharomyces cerevisiae, UniProt P53341)
Test: biochemical
Assay type: biochemical
Details: for inhibition of α-glucosidase, in words: Figure 3, 1 µg/mL, relative to lead compound 4 / Acarbose; for inhibition potency compared with compound 5λ, in words: Table 2
Protocol: The inhibitory potency of the synthesized N-substituted iminosugar C-glycosides 5 was assessed by testing the compounds in assays for the α-glucosidase from yeast. […] Alternatively, N atom was modified with various benzaldehydes, giving a library of iminosugar C-glycosides containing phenyl.
The extracts of each sample were dissolved in distilled water to prepare a certain concentration. 150 µL of the sample solution was mixed with 150 µL of maltose solution (prepared with 0.2 M, pH = 6.8 phosphate buffer) at a certain concentration, and cultured at 37 °C for 10 min. Then 150 µL of the enzyme solution at a certain concentration was added and mixed. The reaction was carried out at 37 °C for 60 min. The reaction was terminated in a boiling water bath for 10 min and centrifuged at 3000 r/min for 10 min. The supernatant was taken to determine the content of glucose with Glu kit. […] Enzyme activity inhibition rate (%) = (negative-sample)/(negative-blank) × 100%.

[1] = read-out: IC50 against α-glucosidase from yeast

Sequence of α-glucosidase from yeast (P53341 whole entry): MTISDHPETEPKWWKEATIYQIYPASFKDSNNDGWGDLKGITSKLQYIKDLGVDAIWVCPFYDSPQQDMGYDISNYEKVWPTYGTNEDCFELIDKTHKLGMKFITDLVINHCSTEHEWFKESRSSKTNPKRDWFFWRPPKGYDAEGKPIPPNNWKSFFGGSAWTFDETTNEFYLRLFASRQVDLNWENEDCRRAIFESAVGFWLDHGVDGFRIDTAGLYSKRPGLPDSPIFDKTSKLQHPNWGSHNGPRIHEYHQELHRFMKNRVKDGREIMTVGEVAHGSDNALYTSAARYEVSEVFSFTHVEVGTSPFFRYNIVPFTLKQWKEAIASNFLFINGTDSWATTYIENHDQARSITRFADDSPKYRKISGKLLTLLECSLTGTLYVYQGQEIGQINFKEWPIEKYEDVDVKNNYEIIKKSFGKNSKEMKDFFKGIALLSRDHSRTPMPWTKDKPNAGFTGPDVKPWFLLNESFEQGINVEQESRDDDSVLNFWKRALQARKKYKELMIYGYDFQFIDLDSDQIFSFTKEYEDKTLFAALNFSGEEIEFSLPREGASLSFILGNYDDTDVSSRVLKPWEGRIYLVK

Structure (SMILES)	inhibition of α-glucosidase, in words	further results
CC(=O)C[C@H]1NC[C@@H](O)[C@@H](O)[C@H]1O [Compound 4, 1-C-Acetylmethyl-5-deoxy-5-amino-α-D-ribopyranoside]	weak inhibitory activity	pIC50: < 4.70
CC(=O)CC1C(O)C(O)C(O)CN1Cc1ccc(C(F)(F)F)cc1 [Compound 5l, (1R, 2S, 3R, 4R)-1-Acetylmethyl-2,3,4-trihydroxyl-N-4-trifluoromethylbenzylpiperidine]	The same result was obtained	–
COc1ccc(CN2C[C@@H](O)[C@@H](O)[C@@H](O)[C@H]2CC(C)=O)cc1O [Compound 6h, (1R, 2S, 3R, 4R)-1-Acetylmethyl-2,3,4-trihydroxyl-N-3-hydroxyl-4-methoxylbenzylpiperidine]	–	pIC50: < 4.70
CC(=O)CC1C(O)C(O)C(O)CN1Cc1ccccc1Br [Compound 5v, (1R, 2S, 3R, 4R)-1-Acetylmethyl-2,3,4-trihydroxyl-N-2-bromobenzylpiperidine]	enhanced the enzyme inhibition	–
CC(=O)CC1C(O)C(O)C(O)CN1Cc1cccc(O)c1 [Compound 5π, (1R, 2S, 3R, 4R)-1-Acetylmethyl-2,3,4-trihydroxyl-N-3-hydroxylbenzylpiperidine]	reduced the inhibitory potency significantly	pIC50: < 4.70
CCCN1C[C@@H](O)[C@@H](O)[C@@H](O)[C@H]1CC(C)=O [Compound 5a, (1R, 2S, 3R, 4R)-1-Acetylmethyl-2,3,4-trihydroxyl-N-n-propylpiperidine]	no improvement of α-glucosidase inhibition	–
CC(=O)CC1C(O)C(O)C(O)CN1Cc1ccc(Br)cc1 [Compound 5u, (1R, 2S, 3R, 4R)-1-Acetylmethyl-2,3,4-trihydroxyl-N-4-bromobenzylpiperidine]	doesn’t show any significant improvement	–
CCOc1cc(CN2C[C@@H](O)[C@@H](O)[C@@H](O)[C@H]2CC(C)=O)ccc1O [Compound 6g, (1R, 2S, 3R, 4R)-1-Acetylmethyl-2,3,4-trihydroxyl-N-3-ethyoxyl-4-hydroxylbenzylpiperidine]	–	pIC50: < 4.70; inhibition potency compared with compound 5λ, in words: severely diminishes the inhibition
CC(=O)CC1C(O)C(O)C(O)CN1Cc1ccc([N+](=O)[O-])cc1 [Compound 5n, (1R, 2S, 3R, 4R)-1-Acetylmethyl-2,3,4-trihydroxyl-N-4-nitrobenzylpiperidine]	The same result was obtained	–
COc1cc(CN2C[C@@H](O)[C@@H](O)[C@@H](O)[C@H]2CC(C)=O)ccc1O [Compound 6f, (1R, 2S, 3R, 4R)-1-Acetylmethyl-2,3,4-trihydroxyl-N-4-hydroxyl-methoxylbenzylpiperidine]	–	pIC50: < 4.70; inhibition potency compared with compound 5λ, in words: severely diminishes the inhibition
CC(=O)CC1C(O)C(O)C(O)CN1Cc1ccc(C#N)cc1 [Compound 5m, (1R, 2S, 3R, 4R)-1-Acetylmethyl-2,3,4-trihydroxyl-N-4-cyanobenzylpiperidine]	The same result was obtained	–
COc1ccc(CN2C[C@@H](O)[C@@H](O)[C@@H](O)[C@H]2CC(C)=O)cc1 [Compound 5o, (1R, 2S, 3R, 4R)-1-Acetylmethyl-2,3,4-trihydroxyl-N-4-methoxylbenzylpiperidine]	The same result was obtained	–
COc1cccc(CN2C[C@@H](O)[C@@H](O)[C@@H](O)[C@H]2CC(C)=O)c1 [Compound 5p, (1R, 2S, 3R, 4R)-1-Acetylmethyl-2,3,4-trihydroxyl-N-3-methoxylbenzylpiperidine]	The same result was obtained	–
CC(=O)CC1C(O)C(O)C(O)CN1Cc1ccc(C)cc1 [Compound 5j, (1R, 2S, 3R, 4R)-1-Acetylmethyl-2,3,4-trihydroxyl-N-4-methylbenzylpiperidine]	The same result was obtained	–
CC(=O)CC1C(O)C(O)C(O)CN1Cc1ccc(Cl)cc1 [Compound 5q, (1R, 2S, 3R, 4R)-1-Acetylmethyl-2,3,4-trihydroxyl-N-4-chlorobenzylpiperidine]	doesn’t show any significant improvement	–
CC(=O)C[C@@H]1[C@H](O)[C@H](O)[C@H](O)CN1Cc1ccc(O)c(Br)c1 [Compound 6b, (1R, 2S, 3R, 4R)-1-Acetylmethyl-2,3,4-trihydroxyl-N-3-bromo-4-hydroxylbenzylpiperidine]	–	inhibition potency compared with compound 5λ, in words: slightly improve the inhibition potency; pIC50 [1]: 5.28
CC(=O)CC1C(O)C(O)C(O)CN1Cc1ccccc1O [Compound 5θ, (1R, 2S, 3R, 4R)-1-Acetylmethyl-2,3,4-trihydroxyl-N-2-hydroxylbenzylpiperidine]	reduced the inhibitory potency significantly	pIC50: < 4.70
CC(=O)CC1C(O)C(O)C(O)CN1Cc1cccc(Cl)c1 [Compound 5t, (1R, 2S, 3R, 4R)-1-Acetylmethyl-2,3,4-trihydroxyl-N-3-chlorobenzylpiperidine]	doesn’t show any significant improvement	–
CC(=O)CC1C(O)C(O)C(O)CN1Cc1cccc(Br)c1 [Compound 5w, (1R, 2S, 3R, 4R)-1-Acetylmethyl-2,3,4-trihydroxyl-N-3-bromobenzylpiperidine]	doesn’t show any significant improvement	–
CC(=O)CC1C(O)C(O)C(O)CN1Cc1cccc(C)c1 [Compound 5k, (1R, 2S, 3R, 4R)-1-Acetylmethyl-2,3,4-trihydroxyl-N-3-methylbenzylpiperidine]	The same result was obtained	–
CC(=O)CC1C(O)C(O)C(O)CN1Cc1cccc(F)c1 [Compound 5z, (1R, 2S, 3R, 4R)-1-Acetylmethyl-2,3,4-trihydroxyl-N-3-fluorobenzylpiperidine]	doesn’t show any significant improvement	–
CC(=O)CC1C(O)C(O)C(O)CN1Cc1ccccc1F [Compound 5y, (1R, 2S, 3R, 4R)-1-Acetylmethyl-2,3,4-trihydroxyl-N-2-fluorobenzylpiperidine]	doesn’t show any significant improvement	–
CC(=O)C[C@@H]1[C@H](O)[C@H](O)[C@H](O)CN1Cc1ccc(O)c(F)c1 [Compound 6c, (1R, 2S, 3R, 4R)-1-Acetylmethyl-2,3,4-trihydroxyl-N-3-fluoro-4-hydroxylbenzylpiperidine]	–	inhibition potency compared with compound 5λ, in words: slightly improve the inhibition potency; pIC50 [1]: 5.48
CC(=O)CC1C(O)C(O)C(O)CN1Cc1ccccc1Cl [Compound 5r, (1R, 2S, 3R, 4R)-1-Acetylmethyl-2,3,4-trihydroxyl-N-2-chlorobenzylpiperidine]	enhanced the enzyme inhibition	pIC50: 4.92
CC(=O)C[C@@H]1[C@H](O)[C@H](O)[C@H](O)CN1Cc1ccc(O)c(Cl)c1 [Compound 6a, (1R, 2S, 3R, 4R)-1-Acetylmethyl-2,3,4-trihydroxyl-N-3-chloro-4-hydroxylbenzylpiperidine]	–	inhibition potency compared with compound 5λ, in words: slightly improve the inhibition potency; pIC50 [1]: 5.25
CC(=O)C[C@@H]1[C@H](O)[C@H](O)[C@H](O)CN1Cc1ccc(O)cc1Cl [Compound 6d, (1R, 2S, 3R, 4R)-1-Acetylmethyl-2,3,4-trihydroxyl-N-2-chloro-4-hydroxylbenzylpiperidine]	–	inhibition compared with positive control Acarbose, in words: equivalent to positive control Acarbose; pIC50 [1]: 5.62
CC(=O)CC1C(O)C(O)C(O)CN1Cc1ccc(O)cc1 [Compound 5λ, (1R, 2S, 3R, 4R)-1-Acetylmethyl-2,3,4-trihydroxyl-N-4-hydroxylbenzylpiperidine]	improved the enzyme inhibition	pIC50: 5.13
CC(=O)CC1C(O)C(O)C(O)CN1Cc1ccc(F)cc1 [Compound 5x, (1R, 2S, 3R, 4R)-1-Acetylmethyl-2,3,4-trihydroxyl-N-4-fluorobenzylpiperidine]	doesn’t show any significant improvement	–
CC(=O)C[C@@H]1[C@H](O)[C@H](O)[C@H](O)CN1Cc1cc(Br)c(O)c(Br)c1 [Compound 6i, (1R, 2S, 3R, 4R)-1-Acetylmethyl-2,3,4-trihydroxyl-N-3,5-dibromo-4-hydroxylbenzylpiperidine]	–	inhibition potency compared with compound 5λ, in words: slightly improve the inhibition potency; pIC50 [1]: 5.26
